In PMC9404989, “Design and Evaluation of Short Bovine Lactoferrin-Derived Antimicrobial Peptides against Multidrug-Resistant Enterococcus faecium” (Antibiotics, 2022):
In brackets after ≈: the same amount, converted by molar mass. Read-outs that look alike come from different tables or passages of the source. No end group written: not given here.

Experiments:
E. faecium WC176 = assay: organism not typed; format: cell-based, Enterococcus faecium; conditions: for MIC: read-out: MIC WC176
Method: (§1) To determine the MICs of peptides, we used the broth microdilution method described by the Clinical and Laboratory Standards Institute. We made serial dilutions of 10× concentration (10 µL) for each peptide in duplicates in 96-well plates (Cat No. 3595, Corning, New York, NY, USA). We added 90 µL of logarithmic-phase bacteria at 5 × 10^5 CFU/mL (in BHI media) to the peptides and then incubated the plates at 37 °C for 18 h. We measured the OD600 absorbance readings using the Spectra Max i3x spectrophotometer (Molecular Devices, San Jose, CA, USA) and determined the MIC as the peptide concentration that inhibits the growth of bacteria.

E. faecium D14 = assay: microbe, parasite or virus in culture; format: cell-based, Enterococcus faecium
Method: as §1

E. faecium strain C68 [1] = assay: microbe, parasite or virus in culture; format: cell-based, Enterococcus faecium
Method: as §1

E. faecium D29 = assay: microbe, parasite or virus in culture; format: cell-based, Enterococcus faecium
Method: as §1

E. faecium D24 = assay: microbe, parasite or virus in culture; format: cell-based, Enterococcus faecium
Method: as §1

E. faecium D25 = assay: microbe, parasite or virus in culture; format: cell-based, Enterococcus faecium
Method: as §1

E. faecium E007 = assay: microbe, parasite or virus in culture; format: cell-based, Enterococcus faecium; conditions: for MIC: Enterococcus faecium
Method: as §1

E. faecium strain C68 [2] = assay: microbe, parasite or virus in culture; format: cell-based, Enterococcus faecium; conditions: for MIC: Enterococcus faecium, C68; for MIC + CaCl2 (2.5 mM) / MIC + MgSO4 (1 mM) / MIC + NaCl (150 mM) / MIC + ZnSO4 (8 µM): strain C68, 18 h
Method: as §1
To investigate the activity of peptides in various salt concentrations, we included physiologically relevant salts in the BHI medium.

[3] = tested on: E. faecium strain C68 on porcine skin; assay: Ex vivo porcine skin infection assay; parameters: species or system Enterococcus faecium; conditions: exponential cells
Excerpt: We evaluated the efficacy of designed lactoferrin AMPs in an ex vivo porcine skin model previously described with minor modifications. We first cleaned the shaved porcine skin (Fisher Scientific, Hampton, NH, USA) with 70% ethanol and then water, and glued polyethylene tubing (5 mm) (Nalgene VWR 228-0170, Radnor, PA, USA) to the skin samples with cyanoacrylate glue (Fisher Scientific, Hampton, NH, USA). Using disposable razors, we cut each piece of skin glued to the tube and inserted it into a 12-well tissue culture plate (Falcon, Cat No. 353182). We infected each skin with 1 × 10^6 CFU of exponential or persister E. faecium strain C68 cells in a total volume of 10 µL. Following an incubation of 1 h at 37 °C, we treated the skin with 50 µL with 5L and 6L at concentrations of 10× or 1× MIC. After an additional 4 h of incubation at 37 °C, we washed each tubing well with 250 µL of PBS (pH 7.4) containing 0.05% Triton X-100 to remove bacteria. After serially diluting the bacterial sample, we counted their CFUs.

E. faecalis V583 = assay: microbe, parasite or virus in culture; format: cell-based; conditions: for MIC E. faecalis V583: V583, 18 h
Method: as §1

E. faecalis MMH594 = assay: microbe, parasite or virus in culture; format: cell-based; conditions: for MIC E. faecalis MMH594: MMH594, 18 h
Method: as §1

E. faecalis OG1RF = assay: MIC assay, E. faecalis OG1RF; format: cell-based; conditions: rifampin and fusidic acid resistant
Method: as §1

S. aureus MW2 = assay: microbe, parasite or virus in culture; format: cell-based, Staphylococcus aureus; conditions: for MIC S. aureus MW2: MW2, 18 h
Method: as §1

[4] = HPLC retention time on C18 reverse-phase column; format: physicochemical
Excerpt: Table 1 Physical parameters and the minimal inhibitory concentration (µg/mL) of designed peptides against E. faecium. | column: rT ^f (min)

[5] = tested on: E. faecium strain C68 established biofilms; format: cell-based, Enterococcus faecium; conditions: 24 h established biofilms, 24 h treatment, crystal violet
Method: We prepared exponential cultures of E. faecium strain C68 (adjusted to 1 × 10^8 CFU/mL) in BHI media (supplemented with 0.2% glucose) from overnight grown cultures. We added 100 µL of the bacterial culture to wells of flat-bottomed 96-well polystyrene microtiter plates (Cat No. 3595, Corning, NY, USA). We then incubated the plates at 37 °C for 24 h in static conditions to allow biofilm formation. After incubation, we carefully pipetted out the media and washed the wells with PBS (Gibco, Waltham, MA, USA) to remove loosely attached planktonic cells. We treated the established biofilms in each well with 10 µL of serially diluted 10× peptide solution, followed by the addition of 90 μL of BHI media (supplemented with 0.2% glucose). The plates were incubated for another 24 h at 37 °C before processing for biomass and live-cell contents. We quantitated the concentration of peptide that disrupts 50% of established biofilms (MBEC50).

[6] = tested on: E. faecium E007 established biofilms; format: cell-based, Enterococcus faecium

Row | Compound | rT (HPLC retention time) [4] | MIC E. faecalis V583 (E. faecalis V583) | MIC E. faecalis MMH594 (E. faecalis MMH594) | MIC EF C68 (E. faecium strain C68 [1]; strain C68, 18 h) | MIC Media Only (E. faecium strain C68 [1]; strain C68, 18 h) | MIC E. faecalis OG1RF (E. faecalis OG1RF) | MIC S. aureus MW2 (S. aureus MW2) | MIC + CaCl2 (2.5 mM) (E. faecium strain C68 [2]) | MIC + MgSO4 (1 mM) (E. faecium strain C68 [2]) | MIC + NaCl (150 mM) (E. faecium strain C68 [2]) | MIC + ZnSO4 (8 µM) (E. faecium strain C68 [2]) | also measured
1 | CC1(C)S[C@@H]2[C@H](NC(=O)[C@H](N)c3ccccc3)C(=O)N2[C@H]1C(=O)O [Ampicillin, reference compound] |  |  |  |  |  |  |  |  |  |  |  | MIC (E. faecium WC176): > 32 µg/mL; MIC (E. faecium D14; Enterococcus faecium, D14; read-out: MIC D14): ≥ 32 µg/mL; MIC (E. faecium strain C68 [1]; Enterococcus faecium, C68, 18 h; read-out: MIC EF C68): > 32 µg/mL; MIC (E. faecium strain C68 [1]; Enterococcus faecium, C68; BHI media only, 37 °C, 18 h; read-out: MIC Media Only): > 32 µg/mL; MIC (E. faecium D29; Enterococcus faecium, D29; read-out: MIC D29): > 32 µg/mL; MIC (E. faecium D24; Enterococcus faecium, D24; read-out: MIC D24): > 32 µg/mL; MIC (E. faecium D25; Enterococcus faecium, D25; read-out: MIC D25): > 32 µg/mL; MIC (E. faecium E007; E007, tetracycline-resistant strain, read-out: MIC E007): > 32 µg/mL; MIC (E. faecium strain C68 [2]; BHI + 8 µM ZnSO4, read-out: MIC + ZnSO4 (8 µM)): > 32 µg/mL; MIC (E. faecium strain C68 [2]; BHI + 1 mM MgSO4, read-out: MIC + MgSO4 (1 mM)): > 32 µg/mL; MIC (E. faecium strain C68 [2]; BHI + 2.5 mM CaCl2, read-out: MIC + CaCl2 (2.5 mM)): > 32 µg/mL; MIC (E. faecium strain C68 [2]; BHI + 150 mM NaCl, read-out: MIC + NaCl (150 mM)): > 32 µg/mL
2 | CNC(C)C1CCC(N)C(OC2C(N)CC(N)C(OC3OCC(C)(O)C(NC)C3O)C2O)O1 (stereo not drawn) [Gentamicin, reference compound] |  |  |  |  |  |  |  |  |  |  |  | bacterial burden, control antibiotic [3]: ineffective in reducing the bacterial burden
3 | CN[C@H](CC(C)C)C(=O)N[C@H]1C(=O)N[C@@H](CC(N)=O)C(=O)N[C@H]2C(=O)N[C@H]3C(=O)N[C@H](C(=O)N[C@H](C(=O)O)c4cc(O)cc(O)c4-c4cc3ccc4O)[C@H](O)c3ccc(c(Cl)c3)Oc3cc2cc(c3O[C@@H]2O[C@H](CO)[C@@H](O)[C@H](O)[C@H]2O[C@H]2C[C@](C)(N)[C@H](O)[C@H](C)O2)Oc2ccc(cc2Cl)[C@H]1O [Vancomycin, reference compound] |  |  |  |  |  |  |  |  |  |  |  | MIC (E. faecium WC176): 16 µg/mL (≈ 11 µM); MIC (E. faecalis V583; Enterococcus faecalis, V583, read-out: MIC E. faecalis V583): > 32 µg/mL; MIC (E. faecalis MMH594; Enterococcus faecalis, MMH594, read-out: MIC E. faecalis MMH594): > 32 µg/mL; MIC (E. faecium D14; Enterococcus faecium, D14, read-out: MIC D14): 2 µg/mL (≈ 1.38 µM); MIC (E. faecium strain C68 [1]; Enterococcus faecium, C68, 18 h, read-out: MIC EF C68): > 32 µg/mL; MIC (E. faecium D29; Enterococcus faecium, D29, read-out: MIC D29): 1 µg/mL (≈ 0.69 µM); MIC (E. faecium D24; Enterococcus faecium, D24, read-out: MIC D24): 1 µg/mL (≈ 0.69 µM); MIC (E. faecium D25; Enterococcus faecium, D25, read-out: MIC D25): 1 µg/mL (≈ 0.69 µM); MIC (E. faecium E007; E007, read-out: MIC E007): 1 µg/mL (≈ 0.69 µM); MIC (E. faecalis OG1RF; Enterococcus faecalis, OG1RF): > 32 µg/mL; MIC (S. aureus MW2; Staphylococcus aureus, MRSA, read-out: MIC S. aureus MW2): 1 µg/mL (≈ 0.69 µM)
4 | LRWLWRRRWLWR-NH2 [Peptide 3L] | 16.145 min | > 32 µg/mL | > 32 µg/mL | 16 µg/mL | 16 µg/mL | > 32 µg/mL | > 32 µg/mL | >32 µg/mL | 8 µg/mL | 16 µg/mL | 4 µg/mL | 
5 | RLWLWRRRWLWR-NH2 [Peptide 4L] | 18.377 min | > 32 µg/mL | > 32 µg/mL | 4 µg/mL | 4 µg/mL | > 32 µg/mL | > 32 µg/mL | >32 µg/mL | 8 µg/mL | 8 µg/mL | 4 µg/mL | 
6 | RRWLWRL-NH2 [Peptide 2L] | 13.321 min | > 32 µg/mL | > 32 µg/mL | >32 µg/mL | >32 µg/mL | > 32 µg/mL | > 32 µg/mL |  |  |  |  | 
7 | RRWLWRRLWLWR-NH2 [Peptide 7L] | 16.290 min | > 32 µg/mL | > 32 µg/mL | 4 µg/mL | 4 µg/mL | > 32 µg/mL | > 32 µg/mL | 8 µg/mL | 4 µg/mL | 4 µg/mL | 2 µg/mL | MIC WC176 (E. faecium WC176; WC176, 18 h): 16 µg/mL; MBEC50 (established biomass) [5]: failed to achieve an MBEC50; MIC D14 (E. faecium D14; D14, 18 h): 8 µg/mL; MIC D29 (E. faecium D29; D29, 18 h): 8 µg/mL; MIC D24 (E. faecium D24; D24, 18 h): 4 µg/mL; MIC D25 (E. faecium D25; D25, 18 h): 4 µg/mL; MIC E007 (E. faecium E007; E007, 18 h): 4 µg/mL; concentration killing 50% of live bacteria cells in established biofilms ([6]; strain E007, 24 h established biofilms, XTT): > 32 µg/mL; established biomass disrupted ([6]; strain E007, at 32 µg/mL): 25–30%
8 | RRWQWRLLLL-NH2 [Peptide 1L] | 18.083 min | > 32 µg/mL | > 32 µg/mL | 16 µg/mL | 16 µg/mL | > 32 µg/mL | > 32 µg/mL | 32 µg/mL | 8 µg/mL | 4 µg/mL | 4 µg/mL | 
